These results are taken from patent US20200101103A1, “REINFORCEMENT OF MUCUS BARRIER PROPERTIES” (CIRQLE BIOMEDICAL CONTRACEPTION IVS, priority 2017, published 2020).

This test relates to purified porcine gastric mucin. The experiment in a line: Effect of muco-adhesive amino acid polymers on mucin gels (light microscopy). The note with it: 5 mg/mL polymer, 4 μl mucin drop, 3 min to 50 min of contact. Here is the method:
FIG. 7 illustrates the effect of low or high molecular weight muco-adhesive polymers on mucin gels. A 4 μl drop of purified porcine gastric mucin was placed in a solution of poly-L-arginine (PLA, DP 11 corresponding to 1.9 kDa, 5 mg/mL), poly-L-lysine (PLL, DP 11 corresponding to 1.6 kDa, 5 mg/mL), or poly-L-lysine (PLL, DP 400 corresponding to 66 kDa, 5 mg/mL). The drop of mucin was observed under the microscope (10x objective). The three images are taken after 3 min, 12 min 30, and 50 min of contact.
Effect of low or high molecular weight muco-adhesive polymers on mucin gels. A 4 μl drop of purified porcine gastric mucin was placed in a solution of poly-L-arginine (PLA, 1.9 kDa, 5 mg/mL), poly-L-lysine (PLL, 1.6 kDa, 5 mg/mL), or poly-L-lysine (PLL, 66 kDa, 5 mg/mL). The drop of mucin was observed under the microscope (10× objective). The three images are taken after 3 min, 12 min 30, and 50 min of contact.
For poly-L-arginine [PLA, 1.9 kDa], the “effect on mucin gel drop” value is on record as “clearly crosslinks the mucin in depth”.

In the case of poly-L-lysine [PLL, 1.6 kDa], the “effect on mucin gel drop” value is given as “clearly crosslinks the mucin in depth”. As to “poly-L-lysine [PLL, 66 kDa, reference compound]”, the “effect on mucin gel drop” value is “changes the structure of the mucins drop and compacts it significantly”.
